# Measurements from the Deep4Chem optical property database.
# Assay: solvent given as SMILES
compound,measurement,setting,value
Cc1cc(=O)oc2c1cc(Cl)c1occ(C)c12,fluorescence lifetime,in C1COCCO1,0.07 ns
same,fluorescence lifetime,in CC#N,0.27 ns
same,fluorescence lifetime,in CCO,0.21 ns
same,fluorescence lifetime,in OCC(F)(F)F,0.72 ns
c1ccc(-c2nc(-c3ccccc3)nc(-c3cc(-n4c5ccccc5c5ccccc54)c(-n4c5ccccc5c5ccccc54)c(-n4c5ccccc5c5ccccc54)c3)n2)cc1,fluorescence lifetime,in O=P(c1ccccc1)(c1ccccc1)c1ccc2oc3ccc(P(=O)(c4ccccc4)c4ccccc4)cc3c2c1,13.1 ns
[O-][n+]1c(-c2ccccc2)cc(N2CCOCC2)nc1/C=C/c1ccccc1,fluorescence lifetime,in ClCCl,4.76 ns
CCn1c2ccccc2c2cc(C#Cc3cc(C#Cc4ccc5c(c4)c4ccccc4n5CC)nc(S(C)(=O)=O)n3)ccc21,fluorescence lifetime,in C1CCOC1,4.22 ns
CC1=CC(C)=[N+]2C1=Cc1c3ccccc3c(C#Cc3ccc(F)cc3)n1[B-]2(F)F,fluorescence lifetime,in CCCCCC,5.44 ns
same,fluorescence lifetime,in CCCCCCCCO,5.07 ns
same,fluorescence lifetime,in CCOC(C)=O,5.32 ns
same,fluorescence lifetime,in CN(C)C=O,4.92 ns
Cn1c(=O)c(/N=N/c2ccc(S(=O)(=O)O)c3ccccc23)c(O)c2ccccc21,fluorescence lifetime,in CS(C)=O,0.05 ns
O=c1[nH]cc(F)c(=O)[nH]1,fluorescence lifetime,in CC#N,0.0004 ns
Cc1cc(C)c(C2=C3C=CC=[N+]3[B-]3(c4ccccc4)Oc4cc(O)cc5c6ccc(C)cc6c6cc2n3c6c45)c(C)c1 (stereo not drawn),fluorescence lifetime,in ClC(Cl)Cl,3 ns
COc1ccc(-c2nc3c(ccc4ccccc43)oc2=O)cc1,fluorescence lifetime,in c1ccccc1,2.1 ns
CC[n+]1c(C=C2C(=O)C(C=C3N(C)c4ccc(Cl)cc4C3(C)C)=C2[O-])sc2ccccc21,fluorescence lifetime,in CO,0.26 ns
same,fluorescence lifetime,in ClC(Cl)Cl,1.65 ns
C(=C\c1cc(-c2ccccc2)c(/C=C/c2ccc(N(c3ccccc3)c3ccccc3)cc2)cc1-c1ccccc1)/c1ccc(N(c2ccccc2)c2ccccc2)cc1,fluorescence lifetime,in ClCCl,1.29 ns
CC1=N/C(=C\c2cc(N(C)C)ccc2C#N)C(=O)N1C,fluorescence lifetime,in C1CCOC1,14.8 ns
same,fluorescence lifetime,in CC#N,7 ns
same,fluorescence lifetime,in CCCCCC,24.7 ns
O=c1c2cccc3cccc(c32)c2nc3c(F)c(F)c(F)c(F)c3n12,fluorescence lifetime,in ClCCl,9 ns
CC(C)(C)c1cc(-n2c(-c3ccc(C(=C(c4ccccc4)c4ccccc4)c4ccccc4)cc3)cc3c2cc(-c2ccc(C(=C(c4ccccc4)c4ccccc4)c4ccccc4)cc2)n3-c2cc(C(C)(C)C)cc(C(C)(C)C)c2)cc(C(C)(C)C)c1,fluorescence lifetime,in ClCCl,0.063 ns
CCCCC(CC)CN1C(=O)C2=C(c3ccc(-c4ccc(C5=C6C(C)=CC(C)=[N+]6[B-](F)(F)n6c(C)cc(C)c65)cc4)s3)N(CC(CC)CCCC)C(=O)C2=C1c1ccc(-c2ccc(C3=C4C(C)=CC(C)=[N+]4[B-](F)(F)n4c(C)cc(C)c43)cc2)s1 (stereo not drawn),fluorescence lifetime,in Cc1ccccc1,3.36 ns
N#Cc1ccc(C#Cc2ccc(C#Cc3ccccc3C#N)cc2C#N)cc1,fluorescence lifetime,in ClC(Cl)Cl,1.83 ns
COc1cc(C#Cc2ccccc2)c(C#Cc2ccccc2)cc1OC,fluorescence lifetime,in CC#N,2.1 ns
CN(C)c1ccc(C2=Cc3c4ccccc4cc[n+]3[B-](F)(F)O2)cc1,fluorescence lifetime,in ClC(Cl)Cl,2.34 ns
c1cc2cc(c1)c1ccc3ccc4ccc(cc4c3c1)c1ccc3ccc4ccc(cc4c3c1)c1cccc2c1,fluorescence lifetime,in Cc1ccccc1,4.7 ns
CN1c2ccccc2CCc2ccccc21,fluorescence lifetime,in CC#N,0.63 ns
same,fluorescence lifetime,in CO,0.81 ns
CCCCN1C(=O)c2ccc3c4ccc5c6c(ccc(c7ccc(c2c37)C1=O)c64)C(=O)N(CCCC)C5=O,fluorescence lifetime,in ClC(Cl)Cl,3.8 ns
CCC1(CC)c2ccccc2-c2c1c1c(c3c2C(CC)(CC)c2cc(N(c4ccccc4)c4ccccc4)ccc2-3)C(CC)(CC)c2ccccc2-1,fluorescence lifetime,in C1CCOC1,1.6 ns
C(#Cc1ccccc1C#Cc1ccccc1)c1ccccc1,fluorescence lifetime,in CC#N,1.47 ns
CCN(CC)c1ccc2c(-c3ccccc3C(=O)O)c3c([o+]c2c1)/C(=C/c1ccc(N2CCCC2)s1)CCC3,fluorescence lifetime,in ClCCl,0.16 ns
O=C1c2ccccc2C(=O)C1C1C(=O)c2c3ccccc3cc3cc4ccccc4c1c23 (stereo not drawn),fluorescence lifetime,in C1CCOC1,13.5 ns
same,fluorescence lifetime,in CC#N,8.4 ns
same,fluorescence lifetime,in CCCCCC,12.9 ns
same,fluorescence lifetime,in Cc1ccccc1,14.1 ns
same,fluorescence lifetime,in ClCCl,11 ns
COc1cc(OC)c2cc(-c3cccc(-c4cc5c(OC)cc(OC)cc5oc4=O)c3)c(=O)oc2c1,fluorescence lifetime,in ClC(Cl)Cl,2.6 ns
CCCCCCCCCCCCCCCCCCN1C(=O)c2ccc3c4ccc5c6c(ccc(c7ccc(c2c37)C1=O)c64)C(=O)NC5=O,fluorescence lifetime,in CN(C)C=O,3 ns
[NH3+]c1cc([NH3+])cc(-c2nc3ccccc3s2)c1,fluorescence lifetime,in O,0.59 ns
c1ccc(-c2nnc(-c3ccc(N4c5ccccc5N(c5ccccc5)c5ccccc54)cc3)n2-c2ccccc2)cc1,fluorescence lifetime,in Cc1ccccc1,3.9 ns
same,fluorescence lifetime,in c1cc(-n2c3ccccc3c3ccccc32)cc(-n2c3ccccc3c3ccccc32)c1,3.5 ns
c1ccc(-n2c(-c3ccc(N(c4ccc(-c5ccc(N(c6ccc(-c7nc8c9ccccc9c9ccccc9c8n7-c7ccccc7)cc6)c6ccc(-c7nc8c9ccccc9c9ccccc9c8n7-c7ccccc7)cc6)cc5)cc4)c4ccc(-c5nc6c7ccccc7c7ccccc7c6n5-c5ccccc5)cc4)cc3)nc3c4ccccc4c4ccccc4c32)cc1,fluorescence lifetime,in ClCCl,1.68 ns
C(=C\c1c2ccccc2cc2ccccc12)/c1cccc2ccccc12,fluorescence lifetime,in CC1CCCCC1,5 ns
same,fluorescence lifetime,in CC#N,4.5 ns
CC[n+]1c(C=C2C(=O)C(C=C3N(C)c4ccc(Cl)cc4C3(C)C)=C2[O-])[se]c2ccccc21,fluorescence lifetime,in CO,0.43 ns
same,fluorescence lifetime,in ClC(Cl)Cl,2.14 ns
c1ccc2c(-c3cc(-c4nccs4)nc(-c4nccs4)c3)cccc2c1,fluorescence lifetime,in CC#N,1.96 ns
same,fluorescence lifetime,in CCCCCC,2.24 ns
same,fluorescence lifetime,in CO,1.86 ns
same,fluorescence lifetime,in ClC(Cl)Cl,2.19 ns
N#Cc1cnc(-c2c3ccccc3c(-c3ccccc3)c3ccccc23)nc1,fluorescence lifetime,in CCO,0.25 ns
same,fluorescence lifetime,in ClCCl,0.4 ns
CCCCc1cc(-c2cccc(COC)c2)oc1-c1cccc(-c2oc(-c3cccc(COC)c3)cc2CCCC)c1,fluorescence lifetime,in ClC(Cl)Cl,1.4 ns
CC1(C)C(=O)C=Cc2ccc(N)cc21,fluorescence lifetime,in O,3.49 ns
Cc1cc(-n2c3ccccc3c3ccccc32)c(-n2c3ccccc3c3ccccc32)cc1C#N,fluorescence lifetime,in c1cc(-c2cccc(-n3c4ccccc4c4ccccc43)c2)cc(-n2c3ccccc3c3ccccc32)c1,14.6 ns
same,fluorescence lifetime,in c1ccc2c(c1)c1ccccc1n2-c1ccc2sc3ccc(-n4c5ccccc5c5ccccc54)cc3c2c1,26.4 ns
same,fluorescence lifetime,in c1ccc2c(c1)c1ccccc1n2-c1ccc2sc3ccc(-n4c5ccccc5c5cccnc54)cc3c2c1,15.8 ns
same,fluorescence lifetime,in c1ccc2c(c1)c1cccnc1n2-c1ccc2sc3ccc(-n4c5ccccc5c5cccnc54)cc3c2c1,19.5 ns
COC(=O)c1ccc(C2=C(/C=C/c3ccc(OC)cc3)O[B-](F)(F)[O+]=C2/C=C/c2ccc(OC)cc2)cc1,fluorescence lifetime,in ClCCl,1.34 ns
N#CC(C#N)=Cc1ccc(-c2ccc(N(c3ccccc3)c3ccccc3)cc2)s1,fluorescence lifetime,in ClC(Cl)Cl,2.5 ns
CCC1=C(C)C2=C(C)c3cccn3[B-](F)(F)[N+]2=C1C,fluorescence lifetime,in C1CCCCC1,5.46 ns
same,fluorescence lifetime,in CC(C)=O,5.66 ns
same,fluorescence lifetime,in CCO,5.73 ns
same,fluorescence lifetime,in CCOC(C)=O,5.57 ns
same,fluorescence lifetime,in CO,5.78 ns
same,fluorescence lifetime,in OCC(F)(F)F,6.17 ns
COc1cccc2cc(C#N)c(=N)oc12,fluorescence lifetime,in ClCCl,0.4 ns
CCC1(CC)c2cc(/C=C/c3cccs3)ccc2-c2c1c1c(c3c2C(CC)(CC)c2cc(/C=C/c4cccs4)ccc2-3)C(CC)(CC)c2cc(/C=C/c3cccs3)ccc2-1,fluorescence lifetime,in C1CCOC1,1.6 ns
C1=Cc2ccccc2Cc2ccccc21,fluorescence lifetime,in CC#N,3.72 ns
c1ccc2[nH]ccc2c1,fluorescence lifetime,in O,4.49 ns
CC(C)(C)c1ccc(-c2nnc(-c3c(-n4c5ccccc5c5ccccc54)c(-n4c5ccccc5c5ccccc54)c(-c4nnc(-c5ccc(C(C)(C)C)cc5)o4)c(-n4c5ccccc5c5ccccc54)c3-n3c4ccccc4c4ccccc43)o2)cc1,fluorescence lifetime,in Cc1ccccc1,12.7 ns
CC1=C(c2cccs2)C(C)=[N+]2C1=C(c1ccc(OS(=O)(=O)c3ccc([N+](=O)[O-])cc3[N+](=O)[O-])cc1)c1c(C)c(-c3cccs3)c(C)n1[B-]2(F)F,fluorescence lifetime,in Cc1ccccc1,3.6 ns
O=C(O)c1ccccc1Nc1cccc(C(F)(F)F)c1,fluorescence lifetime,in C1CCCCC1,2.93 ns
same,fluorescence lifetime,in C1CCOC1,4.54 ns
same,fluorescence lifetime,in C1COCCO1,3.97 ns
same,fluorescence lifetime,in CC#N,4.04 ns
same,fluorescence lifetime,in CCOC(C)=O,4.65 ns
same,fluorescence lifetime,in CN(C)C=O,6.28 ns
same,fluorescence lifetime,in CO,5.08 ns
same,fluorescence lifetime,in ClC(Cl)Cl,3.86 ns
